Experimental data as given in the METLIN SMRT retention time set (Domingo-Almenara et al. 2019).

Assay: gradient 5% acetonitrile 3 min, to 50% in 2 min, to 85% in 15 min, held 3 min, 100 µL/min
Conditions: column: Zorbax Extend-C18 2.1 x 50 mm; eluents: water / acetonitrile, 0.1% formic acid
Procedure, shortened: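 Mixtures of ~100 pure standards were chromatographed on a Zorbax Extend-C18 column (2.1 × 50 mm, 1.8 μm) at 100 μL/min using water and acetonitrile, each with 0.1% formic acid. Detection used a quadrupole time-of-flight mass spectrometer in positive and negative ionization mode, and data collection spanned 3 months. Retention time was obtained from adduct peaks picked computationally and each checked manually.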

Work on `Cc1cc(Cl)ccc1S(=O)(=O)N1CCCC(Cn2cnc3cccnc32)C1` (configuration not stated) yielded an RP-LC retention time of 853 s.
For `CCCCN(C)C(=O)C1CCN(c2cc(Oc3ccc(CC)cc3)ncn2)CC1`, the RP-LC retention time was 1060 s.
`CCOC(=O)c1c(C)[nH]c(CCC(=O)NCCc2c[nH]c3ccccc23)c1C` showed an RP-LC retention time of 715 s.
Work on `CC(C)(C)CC(=O)Nc1cnc(-c2cccnc2)nc1` yielded an RP-LC retention time of 665 s.
In the case of `COC(=O)c1cc(OC)c(OC)cc1NC(=O)NCCc1c[nH]c2ccccc12`, the RP-LC retention time is reported as 876 s.
Compound `CCOc1ccc(C(=O)c2ccc(Cl)c(N)c2)cc1` has an RP-LC retention time of 935 s.
Compound `Cc1ccc(NC(=O)C2CCCN(c3cc(=O)n(C)c(=O)n3C)C2)cc1C` (configuration not stated) has an RP-LC retention time of 746 s.
For `CCOC(=O)c1cc(S(=O)(=O)N2CCCC2C(=O)Nc2cccc(C(F)(F)F)c2)cn1C` (configuration not stated), the RP-LC retention time was 1050 s.
Compound `CCCc1ccc(S(=O)(=O)N2CCc3c(c(-c4nnc(-c5ccccc5)o4)nn3C)C2)cc1` has an RP-LC retention time of 1090 s.
Work on `CC(C)c1ccc(S(=O)(=O)N2C[C@@H](F)C[C@H]2C(=O)N2CCOCC2)cc1` yielded an RP-LC retention time of 802 s.
`C=Cc1ccc(Cn2cc(S(=O)(=O)N3CCCCCC3)ccc2=O)cc1` gave an RP-LC retention time of 1020 s.
For `CCOC(=O)C1=C(CN2CCC(c3ccccc3)C2)NC(=O)NC1c1cccs1` (configuration not stated), the RP-LC retention time was 681 s.
In the case of `CN1CCn2cc(S(=O)(=O)Nc3ccc(Cl)cc3)cc2C1=O`, the RP-LC retention time is reported as 720 s.
Compound `COc1ccc(-n2c(=O)c3sccc3n(Cc3nc(-c4cccc(C)c4)no3)c2=O)cc1` has an RP-LC retention time of 1020 s.
In the case of `CC1(C)CS(=O)(=O)N(c2ccc(C(=O)N3CCN(c4ccccn4)CC3)cc2)C1=O`, the RP-LC retention time is reported as 608 s.
For `Cc1ccc(-n2cc3c(c(C(=O)NCCCOC(C)C)c2=O)CC(C)(C)CC3=O)cc1`, the RP-LC retention time was 997 s.
With `CCCc1noc(-c2ccnc(-n3ncc(C(=O)NC4CCCC4)c3C)c2)n1` the RP-LC retention time was 640 s.
For `COc1cccc(CN2CCc3nn(Cc4ccccc4)c(=O)n3CC2)n1`, the RP-LC retention time was 580 s.
Work on `Cc1ccc(NC(=O)N2CCN(C3=CC4=NC(C)CN4C=N3)CC2)c(C)c1` (configuration not stated) yielded an RP-LC retention time of 627 s.
In the case of `O=C(NCc1ccccc1)c1nc(-c2ccncc2)cs1`, the RP-LC retention time is reported as 575 s.
With `O=C(NCC(O)C1CCCCC1)C(c1ccccc1)c1ccccc1` (configuration not stated) the RP-LC retention time was 907 s.
`Cc1ccc(NC(=O)C2CCCN(S(=O)(=O)c3cc(-c4noc(C)n4)cs3)C2)c(C)c1` (configuration not stated) showed an RP-LC retention time of 983 s.
Work on `Cn1ncc2c3ccccc3n(CC(=O)NCc3ccc4c(c3)OCO4)c2c1=O` yielded an RP-LC retention time of 792 s.
Work on `COc1ccc(-c2csc(NC(=O)Cn3c(=O)sc4ccccc43)n2)cc1` yielded an RP-LC retention time of 951 s.
For `CCN(Cc1ccccc1)C(=O)c1ncn2c1C(=O)N(CC)C(C)(C(=O)NC1CCCC1)C2` (configuration not stated), the RP-LC retention time was 734 s.
With `O=C(CCCc1nnc2c(=O)n(-c3ccc(Cl)cc3)ccn12)NCCc1c[nH]c2ccccc12` the RP-LC retention time was 744 s.
For `CCc1ccc(NC(=O)N2CCN(c3cnn4c(CC)nnc4c3)CC2)cc1`, the RP-LC retention time was 698 s.
`Cc1nnc(C2CCCN(C(=O)c3ccc(S(=O)(=O)N(C)C)cc3)C2)s1` (configuration not stated) gave an RP-LC retention time of 642 s.
For `Cc1cc(N2CCN(C)CC2)n2nc(CN3CCN(c4cccc(C)c4C)CC3)nc2n1`, the RP-LC retention time was 570 s.
In the case of `Cc1ccc(Oc2nccn3c(=O)n(CC(=O)Nc4ccc(C)c(Cl)c4)nc23)cc1`, the RP-LC retention time is reported as 1010 s.
In the case of `CN1CCN(CCNC(=O)c2ccc3c(c2)N(C)C(=O)C2CCCCN32)CC1` (configuration not stated), the RP-LC retention time is reported as 572 s.
`CCOC(=O)c1nc(Nc2ccc(S(=O)(=O)Nc3nc(C)cc(C)n3)cc2)c2ccccc2n1` showed an RP-LC retention time of 692 s.
For `Cc1cc2c(=O)n(CC(=O)Nc3cccc(Br)c3)ccc2s1`, the RP-LC retention time was 850 s.
Work on `CCNC(=O)C1CCCN(c2nc3ncn(CC(=O)Nc4ccc(F)cc4F)c(=O)c3s2)C1` (configuration not stated) yielded an RP-LC retention time of 670 s.
`O=C(Nc1ccc(F)cc1F)N1CCN(Cc2nc3cc(-c4ccccc4)ccc3o2)CC1` showed an RP-LC retention time of 869 s.
Work on `Cc1ccc(N2N=C(C(=O)NCC3CCCO3)S(=O)(=O)c3cc(F)ccc32)cc1` (configuration not stated) yielded an RP-LC retention time of 877 s.
In the case of `CC1CCN(C(=O)C2=CN(c3ccccc3)c3cc(Cl)ccc3S2(=O)=O)CC1`, the RP-LC retention time is reported as 999 s.
With `COC(=O)c1ccccc1NC(=O)Cn1c(-c2nonc2N)nc2ccccc21` the RP-LC retention time was 993 s.
`Cc1cnc(CCNC(=O)Nc2ccc3c(c2)OCCO3)n1C1CCC1` gave an RP-LC retention time of 517 s.
`Cn1cc(CC(=O)NCc2ccc(Cl)cc2)c2cccnc21` gave an RP-LC retention time of 706 s.
For `COc1ccc(-c2ccc(=O)n(Cc3nc(-c4ccc(F)cc4)no3)n2)cc1OC`, the RP-LC retention time was 892 s.
With `Cc1ccc(-c2cc(C(=O)N3CCC(NC(=O)C4CCCCC4)CC3)[nH]n2)c(C)c1` the RP-LC retention time was 811 s.
`C[C@H]1CN(C(=O)COc2ccc(F)cc2)C[C@@H]1c1nc(-c2ccncc2)no1` showed an RP-LC retention time of 793 s.
For `O=C(Nc1ccc2c(c1)CCCN2S(=O)(=O)c1ccccc1)OCc1ccccc1`, the RP-LC retention time was 949 s.
With `CCOC(=O)c1cc(S(=O)(=O)N2CCCC2C(=O)N2CCc3ccccc32)cn1C` (configuration not stated) the RP-LC retention time was 696 s.
Compound `CC(CNC(=O)c1nc(Cn2c(=O)oc3ccccc32)no1)c1ccccc1` (configuration not stated) has an RP-LC retention time of 932 s.
Compound `O=C(c1cccs1)N1CCCCC1c1nc(-c2ccncc2)no1` (configuration not stated) has an RP-LC retention time of 818 s.
`CCc1nnc([C@@H]2CC(F)(F)CN2C(=O)c2ccc3nc[nH]c3c2)o1` gave an RP-LC retention time of 540 s.
Compound `CC(C)Oc1ccc(CNS(=O)(=O)c2cc(-c3nc(C(C)(C)C)cs3)cs2)cc1` has an RP-LC retention time of 1320 s.
With `Cc1ccc(CNC(=O)c2nnc(-c3ccc(S(=O)(=O)N4CCCC4)cc3)o2)o1` the RP-LC retention time was 852 s.
For `COc1ccc(OC)c(NC(=O)C2CC(=O)N(c3n[nH]c4cccc(F)c34)C2)c1` (configuration not stated), the RP-LC retention time was 732 s.
`O=C(CN1CC=C(c2cnn(-c3ccccc3)c2)CC1)Nc1ccc2c(c1)OCCO2` gave an RP-LC retention time of 675 s.
In the case of `O=C(CC1=CCCCC1)N1CCC(C2CCNC2)CC1` (configuration not stated), the RP-LC retention time is reported as 602 s.
For `CC1CCCCN1CCNC(=O)CN1CCN(C(=O)Nc2ccc(Br)cc2)CC1=O` (configuration not stated), the RP-LC retention time was 610 s.
`NS(=O)(=O)c1ccc(CCNC(=O)C2CCCN(c3nc4ccccc4[nH]3)C2)cc1` (configuration not stated) showed an RP-LC retention time of 577 s.
Compound `COc1ccc2c(c1)C1(CCN(C(=O)Cc3ccccc3Cl)C1)C(=O)N2` (configuration not stated) has an RP-LC retention time of 773 s.
`CCCn1c(=O)c(-c2ccc(C(=O)NCC(C)C)cc2)nc2cccnc21` gave an RP-LC retention time of 967 s.
With `COc1ccc(N2CCN(C(=O)c3csc(C(=O)NC4CC4)n3)CC2)cc1` the RP-LC retention time was 700 s.
`Cn1c(N2CCCN(C(=O)COc3ccc(Cl)cc3)CC2)cc(=O)n(C)c1=O` gave an RP-LC retention time of 658 s.
Work on `CCOc1ccc(-c2noc(CN3C(=O)COc4cc(C(C)(C)C)ccc43)n2)cc1` yielded an RP-LC retention time of 1260 s.
For `COc1cc2c(c(O)c1OC)-c1c(cc(OC)c(OC)c1OC)CC(C)C(C)C2` (configuration not stated), the RP-LC retention time was 1080 s.
Compound `O=C(CN1C(=O)C2CCCCN2C(=O)c2ccccc21)Nc1ccc(C(F)(F)F)cc1` (configuration not stated) has an RP-LC retention time of 890 s.
`Cc1cc(F)ccc1NC(=O)C1CN(S(=O)(=O)C2CC2)CC12CCCCC2` (configuration not stated) gave an RP-LC retention time of 964 s.
In the case of `O=C(Nc1ccc(F)cc1)Nc1ccc2nncn2c1`, the RP-LC retention time is reported as 659 s.
`Cc1cccc(CNC(=O)C2CCCN(S(=O)(=O)c3cc(-c4noc(C)n4)cs3)C2)c1` (configuration not stated) showed an RP-LC retention time of 1010 s.
Compound `CCN1C(=O)COc2ccc(-c3noc(C4CC(=O)N(c5cccc(Cl)c5)C4)n3)cc21` (configuration not stated) has an RP-LC retention time of 1010 s.
With `O=C(NC1(c2nc(-c3ccccc3)no2)CCCCC1)c1cccc(Cl)c1` the RP-LC retention time was 1230 s.
In the case of `CC1CN(C2CCCCC2)c2nc3c(c(=O)n(CCCO)c(=O)n3C)n2C1` (configuration not stated), the RP-LC retention time is reported as 803 s.
Work on `O=C(CSc1ccc(N2CCCC(C(=O)NC3CC3)C2)nn1)Nc1ccc(F)cc1Cl` (configuration not stated) yielded an RP-LC retention time of 675 s.
Compound `CCOc1ccc(NC(=O)CCc2cccc3[nH]ccc23)cc1` has an RP-LC retention time of 875 s.
Work on `O=C(CN1CC=C(c2cnn(-c3ccccc3)c2)CC1)N1CCN(c2ccccn2)CC1` yielded an RP-LC retention time of 567 s.
Work on `c1ccc(-n2nnc(-c3noc(-c4ccccn4)n3)c2-c2ccncc2)cc1` yielded an RP-LC retention time of 718 s.
In the case of `COc1ccccc1CCNC(=O)C1CN(C(=O)c2c[nH]c3ccccc23)C1`, the RP-LC retention time is reported as 673 s.
Compound `COc1ccccc1NC(=O)C1CCCN(c2nc3ccccc3nc2OC)C1` (configuration not stated) has an RP-LC retention time of 1160 s.
For `O=C(Nc1cnn(-c2ncc(N3CCCC3)cn2)c1)Nc1ccccc1C(F)(F)F`, the RP-LC retention time was 850 s.
`Cc1ccc(-n2c(=O)c3c(cc(C)n3C)n(CC(=O)Nc3cccc(Cl)c3)c2=O)cc1` showed an RP-LC retention time of 937 s.
Work on `COc1ccc(-c2nc(Cc3noc(-c4cccc(OC)c4)n3)c(C)o2)cc1` yielded an RP-LC retention time of 1030 s.
`COc1ccc(-c2c(C)noc2NC(C)=O)cc1S(=O)(=O)Nc1ccc(F)cc1` showed an RP-LC retention time of 736 s.
For `C=CCNC(=O)c1cnn(-c2cc(-c3nc(C(C)C)no3)ccn2)c1C`, the RP-LC retention time was 776 s.
With `Cc1nc(NCc2ccco2)sc1C(=O)Nc1ccc(F)c(Cl)c1` the RP-LC retention time was 900 s.
With `CCCn1cnc2cc(CNS(=O)(=O)c3ccc(F)cc3)ccc21` the RP-LC retention time was 635 s.
Work on `COc1ccc(Cl)cc1NC(=O)N1CCC2(CC1)NC(=O)c1ccccc1O2` yielded an RP-LC retention time of 1190 s.
`COc1ccc(-c2nc(N3CCOCC3)c3ccccc3n2)cc1` gave an RP-LC retention time of 669 s.
Compound `COCCNC(=O)C1CCCN1S(=O)(=O)c1cc2c(cc1Cl)NC(=O)CO2` (configuration not stated) has an RP-LC retention time of 627 s.
For `C[C@@H]1CCN(C(=O)C(CCCN=C(N)N)NS(=O)(=O)c2cccc3c2NC[C@H](C)C3)C(C(=O)O)C1` (some centres not stated), the RP-LC retention time was 767 s.
Compound `Cc1nn(-c2ccccc2)c(-n2cccc2)c1CNC(=O)NCc1ccc(F)cc1` has an RP-LC retention time of 909 s.
`COc1ccc(-n2ccn3cc(-c4ccc5c(c4)OCO5)nc3c2=O)cc1` gave an RP-LC retention time of 766 s.
